Results from ChEMBL document CHEMBL4507300 (2021).

How the values were obtained:
[1] = biological target: Mitogen-activated protein kinase kinase kinase kinase 1 (Homo sapiens) (UniProt Q92918); conditions: Compound concentration 1000.0 nM
[2] = test system: Receptor-type tyrosine-protein kinase FLT3 (Homo sapiens), P36888 [D835Y]; conditions: Compound concentration 1000.0 nM
[3] = biological target: 5-hydroxytryptamine receptor 1A (Homo sapiens) (UniProt P08908); conditions: Compound concentration 10.0 uM
[4] = test system: Mast/stem cell growth factor receptor Kit (Homo sapiens), P10721 [L576P]; conditions: Compound concentration 1000.0 nM
[5] = biological target: Serine/threonine-protein kinase 25 (Homo sapiens) (UniProt O00506); conditions: Compound concentration 1000.0 nM
[6] = biological target: Casein kinase I isoform delta (Homo sapiens) (UniProt P48730); conditions: Compound concentration 1000.0 nM
[7] = biological target: Phosphatidylinositol 4,5-bisphosphate 3-kinase catalytic subunit delta isoform (Homo sapiens) (UniProt O00329); conditions: Compound concentration 1000.0 nM
[8] = biological target: Serine/threonine-protein kinase TNNI3K (Homo sapiens) (UniProt Q59H18); conditions: Compound concentration 1000.0 nM
[9] = biological target: Sodium-dependent noradrenaline transporter (Homo sapiens) (UniProt P23975); conditions: Compound concentration 10.0 uM
[10] = biological target: Mitogen-activated protein kinase kinase kinase 11 (Homo sapiens) (UniProt Q16584); conditions: Compound concentration 1000.0 nM
[11] = biological target: Receptor-interacting serine/threonine-protein kinase 1 (Homo sapiens) (UniProt Q13546); conditions: Compound concentration 1000.0 nM
[12] = biological target: Tyrosine-protein kinase Tec (Homo sapiens) (UniProt P42680); conditions: Compound concentration 1000.0 nM
[13] = biological target: Tyrosine-protein kinase BTK (Homo sapiens) (UniProt Q06187); conditions: Compound concentration 1000.0 nM
[14] = biological target: Mitogen-activated protein kinase 12 (Homo sapiens) (UniProt P53778); conditions: Compound concentration 1000.0 nM
[15] = test system: Proto-oncogene tyrosine-protein kinase receptor Ret (Homo sapiens), P07949 [V804M]; conditions: Compound concentration 1000.0 nM
[16] = biological target: Dual specificity mitogen-activated protein kinase kinase 2 (Homo sapiens) (UniProt P36507); conditions: Compound concentration 1000.0 nM
[17] = biological target: Tyrosine-protein kinase Fgr (Homo sapiens) (UniProt P09769); conditions: Compound concentration 1000.0 nM
[18] = biological target: Serine/threonine-protein kinase OSR1 (Homo sapiens) (UniProt O95747); conditions: Compound concentration 1000.0 nM
[19] = biological target: G protein-coupled receptor kinase 3 (Homo sapiens) (UniProt P35626); conditions: Compound concentration 1000.0 nM
[20] = test system: Receptor-type tyrosine-protein kinase FLT3 (Homo sapiens), P36888 [UNDEFINED MUTATION]; conditions: Compound concentration 1000.0 nM
[21] = biological target: Phosphatidylinositol 5-phosphate 4-kinase type-2 gamma (Homo sapiens) (UniProt Q8TBX8); conditions: Compound concentration 1000.0 nM
[22] = biological target: Inhibitor of nuclear factor kappa-B kinase subunit epsilon (Homo sapiens) (UniProt Q14164); conditions: Compound concentration 1000.0 nM
[23] = biological target: Cyclin-dependent kinase 2 homolog (Plasmodium falciparum (isolate 3D7)) (UniProt P61075); conditions: Compound concentration 1000.0 nM
[24] = biological target: Tyrosine-protein kinase Blk (Homo sapiens) (UniProt P51451); conditions: Compound concentration 1000.0 nM
[25] = biological target: Receptor tyrosine-protein kinase erbB-2 (Homo sapiens) (UniProt P04626); conditions: Compound concentration 1000.0 nM
[26] = biological target: Interleukin-1 receptor-associated kinase 3 (Homo sapiens) (UniProt Q9Y616); conditions: Compound concentration 1000.0 nM
[27] = biological target: Mitogen-activated protein kinase 1 (Homo sapiens) (UniProt P28482); conditions: Compound concentration 1000.0 nM
[28] = biological target: Serine/threonine-protein kinase ICK (Homo sapiens) (UniProt Q9UPZ9); conditions: Compound concentration 1000.0 nM
[29] = biological target: Protein kinase C delta type (Homo sapiens) (UniProt Q05655); conditions: Compound concentration 1000.0 nM
[30] = biological target: Serine/threonine-protein kinase 17A (Homo sapiens) (UniProt Q9UEE5); conditions: Compound concentration 1000.0 nM
[31] = biological target: Rho-associated protein kinase 1 (Homo sapiens) (UniProt Q13464); conditions: Compound concentration 1000.0 nM
[32] = biological target: TGF-beta receptor type-2 (Homo sapiens) (UniProt P37173); conditions: Compound concentration 1000.0 nM
[33] = biological target: 5-hydroxytryptamine receptor 3A (Homo sapiens) (UniProt P46098); conditions: Compound concentration 10.0 uM
[34] = biological target: Tyrosine-protein kinase JAK1 (Homo sapiens) (UniProt P23458); conditions: Compound concentration 1000.0 nM
[35] = biological target: Serine/threonine-protein kinase Nek11 (Homo sapiens) (UniProt Q8NG66); conditions: Compound concentration 1000.0 nM
[36] = biological target: Rhodopsin kinase GRK7 (Homo sapiens) (UniProt Q8WTQ7); conditions: Compound concentration 1000.0 nM
[37] = biological target: Vascular endothelial growth factor receptor 1 (Homo sapiens) (UniProt P17948); conditions: Compound concentration 1000.0 nM
[38] = biological target: Serine/threonine-protein kinase Sgk2 (Homo sapiens) (UniProt Q9HBY8); conditions: Compound concentration 1000.0 nM
[39] = biological target: 5'-AMP-activated protein kinase catalytic subunit alpha-2 (Homo sapiens) (UniProt P54646); conditions: Compound concentration 1000.0 nM
[40] = biological target: Mast/stem cell growth factor receptor Kit (Homo sapiens) (UniProt P10721); conditions: Compound concentration 1000.0 nM
[41] = biological target: Ribosomal protein S6 kinase alpha-5 (Homo sapiens) (UniProt O75582); conditions: Compound concentration 1000.0 nM
[42] = biological target: Serine/threonine-protein kinase RIO1 (Homo sapiens) (UniProt Q9BRS2); conditions: Compound concentration 1000.0 nM
[43] = biological target: Phosphatidylinositol 3-kinase C2 domain-containing subunit gamma (Homo sapiens) (UniProt O75747); conditions: Compound concentration 1000.0 nM
[44] = biological target: Tyrosine-protein kinase receptor TYRO3 (Homo sapiens) (UniProt Q06418); conditions: Compound concentration 1000.0 nM
Tyrosine-protein kinase receptor TYRO3 (Homo sapiens), sequence (Q06418 whole entry): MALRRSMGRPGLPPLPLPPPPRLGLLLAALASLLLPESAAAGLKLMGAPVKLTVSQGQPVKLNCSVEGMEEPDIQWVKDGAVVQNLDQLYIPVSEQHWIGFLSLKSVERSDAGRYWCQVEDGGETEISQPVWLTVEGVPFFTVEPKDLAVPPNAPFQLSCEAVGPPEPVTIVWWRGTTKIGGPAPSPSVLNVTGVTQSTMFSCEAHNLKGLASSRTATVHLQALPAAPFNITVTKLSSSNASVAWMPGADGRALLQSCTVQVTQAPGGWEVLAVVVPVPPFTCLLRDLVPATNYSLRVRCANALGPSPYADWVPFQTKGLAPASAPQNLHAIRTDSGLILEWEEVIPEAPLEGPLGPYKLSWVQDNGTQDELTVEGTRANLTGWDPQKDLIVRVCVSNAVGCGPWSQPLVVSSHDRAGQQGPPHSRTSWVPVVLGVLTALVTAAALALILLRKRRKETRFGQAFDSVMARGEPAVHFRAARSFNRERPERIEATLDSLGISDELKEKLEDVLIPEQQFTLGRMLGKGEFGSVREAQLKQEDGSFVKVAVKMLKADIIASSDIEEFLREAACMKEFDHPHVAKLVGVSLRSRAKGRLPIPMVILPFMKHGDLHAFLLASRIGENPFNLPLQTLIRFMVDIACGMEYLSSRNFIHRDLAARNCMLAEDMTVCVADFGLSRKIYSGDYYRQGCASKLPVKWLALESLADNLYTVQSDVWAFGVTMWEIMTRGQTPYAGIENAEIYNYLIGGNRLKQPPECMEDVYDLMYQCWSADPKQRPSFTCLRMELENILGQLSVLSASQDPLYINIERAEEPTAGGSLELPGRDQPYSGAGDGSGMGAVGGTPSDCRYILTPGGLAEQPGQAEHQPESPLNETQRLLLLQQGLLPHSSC

Serine/threonine-protein kinase 17A (Homo sapiens), sequence (Q9UEE5 whole entry): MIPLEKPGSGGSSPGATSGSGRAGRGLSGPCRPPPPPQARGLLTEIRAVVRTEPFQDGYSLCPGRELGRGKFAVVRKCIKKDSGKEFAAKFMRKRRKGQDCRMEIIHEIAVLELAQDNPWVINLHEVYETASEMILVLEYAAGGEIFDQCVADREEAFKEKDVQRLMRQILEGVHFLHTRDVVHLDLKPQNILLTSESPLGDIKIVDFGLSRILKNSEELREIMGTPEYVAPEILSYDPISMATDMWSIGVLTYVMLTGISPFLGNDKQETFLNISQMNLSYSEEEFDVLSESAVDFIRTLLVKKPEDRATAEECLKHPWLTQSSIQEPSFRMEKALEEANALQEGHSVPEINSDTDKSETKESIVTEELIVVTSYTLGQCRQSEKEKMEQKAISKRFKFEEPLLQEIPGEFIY
Mitogen-activated protein kinase kinase kinase kinase 1 (Homo sapiens), sequence (Q92918 whole entry, looked up): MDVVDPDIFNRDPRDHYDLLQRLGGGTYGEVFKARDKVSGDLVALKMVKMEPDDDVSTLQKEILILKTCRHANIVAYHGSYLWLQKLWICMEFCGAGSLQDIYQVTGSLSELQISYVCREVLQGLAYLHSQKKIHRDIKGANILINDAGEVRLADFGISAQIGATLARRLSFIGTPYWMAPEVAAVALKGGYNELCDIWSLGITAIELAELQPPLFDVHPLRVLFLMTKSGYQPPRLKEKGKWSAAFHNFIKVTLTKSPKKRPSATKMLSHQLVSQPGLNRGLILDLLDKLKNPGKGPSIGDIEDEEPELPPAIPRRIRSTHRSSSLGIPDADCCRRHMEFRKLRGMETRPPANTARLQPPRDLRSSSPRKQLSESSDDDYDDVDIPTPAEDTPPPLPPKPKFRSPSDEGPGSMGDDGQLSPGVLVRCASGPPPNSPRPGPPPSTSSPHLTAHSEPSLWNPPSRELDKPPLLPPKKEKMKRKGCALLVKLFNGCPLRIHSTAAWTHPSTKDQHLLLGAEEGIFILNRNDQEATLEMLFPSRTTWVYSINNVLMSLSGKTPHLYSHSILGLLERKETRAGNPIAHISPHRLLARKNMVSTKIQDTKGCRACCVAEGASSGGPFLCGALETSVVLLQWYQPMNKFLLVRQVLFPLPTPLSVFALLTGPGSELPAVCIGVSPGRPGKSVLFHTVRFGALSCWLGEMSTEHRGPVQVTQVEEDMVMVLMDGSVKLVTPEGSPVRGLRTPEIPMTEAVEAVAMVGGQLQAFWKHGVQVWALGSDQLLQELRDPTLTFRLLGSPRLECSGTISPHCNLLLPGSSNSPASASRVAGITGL
Tyrosine-protein kinase Tec (Homo sapiens), sequence (P42680 whole entry): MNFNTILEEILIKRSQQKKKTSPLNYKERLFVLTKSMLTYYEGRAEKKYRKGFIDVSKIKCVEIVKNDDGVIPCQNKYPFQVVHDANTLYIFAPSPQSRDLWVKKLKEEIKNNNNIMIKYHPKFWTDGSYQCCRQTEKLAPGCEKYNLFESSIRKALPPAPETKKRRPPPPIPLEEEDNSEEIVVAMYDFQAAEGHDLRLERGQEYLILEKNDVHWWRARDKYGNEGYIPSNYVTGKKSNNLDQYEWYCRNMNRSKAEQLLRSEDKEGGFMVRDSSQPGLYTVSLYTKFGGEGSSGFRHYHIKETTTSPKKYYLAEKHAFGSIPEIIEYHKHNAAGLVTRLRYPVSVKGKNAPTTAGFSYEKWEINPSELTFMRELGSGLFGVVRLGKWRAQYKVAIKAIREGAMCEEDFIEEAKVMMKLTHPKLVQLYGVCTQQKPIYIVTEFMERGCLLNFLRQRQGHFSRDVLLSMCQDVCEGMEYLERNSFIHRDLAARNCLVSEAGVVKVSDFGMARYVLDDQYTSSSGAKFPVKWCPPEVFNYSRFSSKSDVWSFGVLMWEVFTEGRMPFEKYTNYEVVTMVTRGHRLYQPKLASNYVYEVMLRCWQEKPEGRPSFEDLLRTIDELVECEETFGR
Cyclin-dependent kinase 2 homolog (Plasmodium falciparum (isolate 3D7)), sequence (P61075 whole entry): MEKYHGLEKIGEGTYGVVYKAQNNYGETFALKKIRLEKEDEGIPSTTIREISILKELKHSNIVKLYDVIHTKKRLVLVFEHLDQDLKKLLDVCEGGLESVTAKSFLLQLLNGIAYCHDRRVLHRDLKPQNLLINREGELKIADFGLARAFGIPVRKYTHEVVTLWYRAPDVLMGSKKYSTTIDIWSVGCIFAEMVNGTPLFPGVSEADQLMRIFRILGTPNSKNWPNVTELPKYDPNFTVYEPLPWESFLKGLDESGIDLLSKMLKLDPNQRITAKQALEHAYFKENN
5'-AMP-activated protein kinase catalytic subunit alpha-2 (Homo sapiens), sequence (P54646 whole entry, looked up): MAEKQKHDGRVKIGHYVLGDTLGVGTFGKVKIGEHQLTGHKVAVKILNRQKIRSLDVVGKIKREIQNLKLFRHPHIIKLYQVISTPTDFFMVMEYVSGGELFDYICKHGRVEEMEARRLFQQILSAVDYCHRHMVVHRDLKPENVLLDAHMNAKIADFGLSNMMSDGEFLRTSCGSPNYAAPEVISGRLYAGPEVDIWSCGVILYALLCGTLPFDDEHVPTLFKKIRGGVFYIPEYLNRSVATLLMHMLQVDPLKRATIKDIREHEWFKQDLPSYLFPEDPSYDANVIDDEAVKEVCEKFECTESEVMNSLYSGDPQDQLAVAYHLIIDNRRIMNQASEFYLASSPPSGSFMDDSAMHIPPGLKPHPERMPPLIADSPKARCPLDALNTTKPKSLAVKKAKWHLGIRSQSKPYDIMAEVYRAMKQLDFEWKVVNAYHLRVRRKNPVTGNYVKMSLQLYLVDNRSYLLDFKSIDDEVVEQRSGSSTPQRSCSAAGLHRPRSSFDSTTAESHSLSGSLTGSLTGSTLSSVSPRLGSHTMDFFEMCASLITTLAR
5-hydroxytryptamine receptor 1A (Homo sapiens), sequence (P08908 whole entry): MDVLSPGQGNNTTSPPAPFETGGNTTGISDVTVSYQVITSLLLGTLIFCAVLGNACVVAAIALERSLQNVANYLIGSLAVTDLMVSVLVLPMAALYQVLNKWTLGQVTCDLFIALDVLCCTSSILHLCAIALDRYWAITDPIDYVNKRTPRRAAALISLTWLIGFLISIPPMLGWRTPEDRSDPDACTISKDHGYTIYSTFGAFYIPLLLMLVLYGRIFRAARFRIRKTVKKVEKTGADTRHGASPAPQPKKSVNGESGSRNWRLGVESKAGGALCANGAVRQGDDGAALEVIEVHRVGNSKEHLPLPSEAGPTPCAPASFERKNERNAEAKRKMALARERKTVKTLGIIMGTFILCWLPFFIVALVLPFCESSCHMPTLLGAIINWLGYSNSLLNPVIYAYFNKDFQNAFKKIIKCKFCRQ
Phosphatidylinositol 5-phosphate 4-kinase type-2 gamma (Homo sapiens), sequence (Q8TBX8 whole entry): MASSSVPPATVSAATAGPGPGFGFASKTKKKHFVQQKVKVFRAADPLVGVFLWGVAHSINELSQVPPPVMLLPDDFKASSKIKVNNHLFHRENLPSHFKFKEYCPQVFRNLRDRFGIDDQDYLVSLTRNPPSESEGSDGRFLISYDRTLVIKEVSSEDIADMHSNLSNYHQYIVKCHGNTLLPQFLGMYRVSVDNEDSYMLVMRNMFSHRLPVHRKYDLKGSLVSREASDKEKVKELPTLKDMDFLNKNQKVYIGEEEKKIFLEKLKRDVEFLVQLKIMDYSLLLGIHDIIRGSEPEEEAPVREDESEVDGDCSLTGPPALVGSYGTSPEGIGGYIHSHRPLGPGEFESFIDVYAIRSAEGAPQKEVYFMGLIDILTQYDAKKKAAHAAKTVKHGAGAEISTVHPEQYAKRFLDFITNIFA
Dual specificity mitogen-activated protein kinase kinase 2 (Homo sapiens), sequence (P36507 whole entry): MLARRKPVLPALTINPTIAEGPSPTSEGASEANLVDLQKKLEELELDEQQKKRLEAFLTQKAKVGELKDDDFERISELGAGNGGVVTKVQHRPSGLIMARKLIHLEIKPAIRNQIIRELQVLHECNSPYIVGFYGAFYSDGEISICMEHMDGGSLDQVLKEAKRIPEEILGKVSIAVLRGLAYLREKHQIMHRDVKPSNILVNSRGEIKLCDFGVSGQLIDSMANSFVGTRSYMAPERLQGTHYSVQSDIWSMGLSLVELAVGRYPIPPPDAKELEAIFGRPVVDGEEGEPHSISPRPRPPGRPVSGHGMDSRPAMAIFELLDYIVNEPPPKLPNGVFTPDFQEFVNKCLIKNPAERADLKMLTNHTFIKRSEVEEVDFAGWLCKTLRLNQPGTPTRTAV

COc1cccc(CNC(=O)c2nc3scc(COCc4ccc(C(=O)O)cc4)c3c(=O)[nH]2)c1 [T-26c]
inactive: residual activity [1] 100% | residual activity [2] 94.3% | inhibition [3] 7.7% | residual activity [4] 100% | residual activity [5] 100% | residual activity [6] 100% | residual activity [7] 85.7% | residual activity [8] 95.5% | inhibition [9] 12.6% | residual activity [10] 100% | residual activity [11] 97.4% | residual activity [12] 86% | residual activity [13] 63% | residual activity [14] 92.1% | residual activity [15] 95.3% | residual activity [16] 75.1% | residual activity [17] 90% | residual activity [18] 71.9% | residual activity [19] 72.5% | residual activity [20] 63% | residual activity [21] 74.7% | residual activity [22] 83.9% | residual activity [23] 72.5% | residual activity [24] 100% | residual activity [25] 97.2% | residual activity [26] 97.5% | residual activity [27] 100% | residual activity [28] 66.1% | residual activity [29] 87.7% | residual activity [30] 73.1% | residual activity [31] 100% | residual activity [32] 97% | inhibition [33] 6.87% | residual activity [34] 76% | residual activity [35] 65.6% | residual activity [36] 67% | residual activity [37] 93.9% | residual activity [38] 84.9% | residual activity [39] 70.5% | residual activity [40] 81.3% | residual activity [41] 93.1% | residual activity [42] 52.1% | residual activity [43] 100% | residual activity [44] 100%
